Source: US20170281611A1, “QUINOLINES AND THEIR USE FOR TREATING ENDOPLASMIC RETICULUM STRESS-CAUSED DISEASES” (EIGER BIOPHARMACEUTICALS, INC., priority 2014, published 2017)

System: PS1/APP mice
Experiment: Alzheimer's disease model, 2-photon Ca2+ imaging of CA1 pyramidal neurons in brain slices
Type: in vivo, mouse
Details: 10 mg/kg IP for 4 weeks, vs saline
Source text: PS1/APP mice (PS1M146V and APPSWE) (Howlett et al., Brain Res. 2004, 1017, 130-136) were used. Age-matched NTg controls were on the same background strain (C57bl6/J9).
Mice were deeply anesthetized with halothane and rapidly decapitated. The brains were extracted rapidly and 300 or 400 μm-thick transverse hippocampal slices were cut with a vibrating microtome into ice-cold oxygenated artificial cerebrospinal fluid (aCSF) with the following composition (in mM): 125 NaCl, 2.5 KCl, 1.25 KH2PO4, 1.2 MgSO4, 2 CaCl2, 10 dextrose, and 25 NaHCO3.
Ca^2+ imaging within individual neurons was performed in brain slice preparations using a custom-made video-rate multiphoton-imaging system based on an upright Olympus BX51 microscope frame. […] Emitted fluorescence light was detected by a wide-field photomultiplier (Electron Tubes) to derive a video signal that was captured and analyzed by Video Savant 5.0 software (IO Industries). […] For clarity, results are expressed as inverse ratios so that increases in [Ca^2+] correspond to increasing ratios. The % change is calculated as […], where F is the average resting fluorescence at baseline and ΔF is the decrease of fluorescence reflecting Ca release. Differences between drug- and saline-treated groups were assessed using two-way ANOVA and Scheffe post hoc analysis for significance (p<0.05). […]

With `Cc1ccc2cccc(NC(=O)c3ccc(OC(C)C)cc3)c2n1` [Compound A12, 4-Isopropoxy-N-(2-methylquinolin-8-yl)benzamide] the “ER Ca2+ signaling (RyR-Ca2+ response to caffeine)” value was “restores ER Ca^2+ signaling”.
